According to patent publication US20110028405A1, “SULFAMIDES AS ZAP-70 INHIBITORS” (priority 2007, published 2011):

Assays:
Jurkat cells = assay: Calcium release assay (Fluo-4, flow cytometry, anti-CD3 stimulation); type: cell-based; conditions: Homo sapiens; intracellular Ca2+ release in Jurkat cells after anti-CD3 activation
Method: Compounds of the present invention were tested in a Calcium release assay as described below.
The development of fluorescent probes makes it possible to measure the concentration of intracellular free Calcium ions in single living cells. Cells are first loaded with a cell-permeable Ca^2+-sensitive dye, then the test compound is added. Finally, cells are activated through the T cell receptor with an anti-CD3 antibody shortly before data acquisition on the flow cytometer. The release of Ca^2+ is measured as a function of time after cell stimulation. This protocol describes the flow cytometry method using the Fluo-3 and Fluo-4 dyes (Minta et al., 1989, J. Biol. Chem. 264(14):8171-8178) to measure the intracellular Ca^2+ concentration in Jurkat cells (see also June et al., 1997, Measurement of intracellular calcium ions by flow cytometry. In: Current Protocols in Cytometry (1997) Unit 9.8.1-9.8.19, John Wiley & Sons, Inc.).
1) Prepare a work plan indicating the number of samples to be analyzed including controls. 2) Cell harvest: Centrifuge 50 to 100 ml of a Jurkat cell culture for 5 minutes at 1100 rpm. Discard the supernatant, pool the resuspended cell pellets in a single 50 ml Falcon tube, and fill up to 50 ml with PBS-CaCl2 (without FCS). Centrifuge again sample again. 3) Resuspend cell pellet with PBS-CaCl2 (without FCS) to achieve a concentration not lower than 10×10^6 cells/ml. Prepare an adequate dilution to evaluate the cell concentration and count the cells. 4) Separate the volume of cells needed to be loaded (for example […] for 20 samples) in a 50 ml Falcon tube. Fill up with PBS-CaCl2 to 900 μl for 107 cells. 5) Prepare in the dark a 1:1 mix of FLUO-4 (1 mM)+Pluronic F-127 (20%). 5 μl of Fluo-4 are needed per 107 cells. 6) Prepare a 1/10 dilution of this mix with PBS-CaCl2 (in the dark; for example 5 μl Fluo-4+5 μl F-127 completed to 100 μl). 7) Add the dye solution to the cells. […] 8) Incubate the sample for 30 minutes in a cell incubator (37° C., 5% CO2). Mix from time to time. 9) During this time prepare the adequate test compound dilution in PBS-CaCl2 (with 10% FCS). The solution should be 10 times more concentrated than the desired final concentration. Vortex each dilution. Prepare also the antibody dilutions: anti-CD3 (1/200) and GAM (1/25). 10) Label FACS tubes and distribute in the corresponding tube 30 μl of the compound dilution or only buffer for the control tubes. 11) After 30 minutes of incubation wash the cells twice in PBS-CaCl2 (with 10% FCS). During the washing steps make sure that the flow cytometer is already “ON” in order to warm the laser. 12) Resuspend the cell pellet in PBS-CaCl2 (with 10% FCS) at a concentration of 1.5×10^6 cells/ml. 13) Distribute 300 μl of cell suspension into the FACS tubes and mix gently. The compound incubation is starting. Keep samples at room temperature in the dark. 14) Open the settings of the cytometer. It is advised to have a template ready which is used for all measurements. Settings of the machine should also be the same from one experiment to the other which permits to evaluate the reproducibility of the cell preparation. 15) In Setup modus control your cell preparation on the cytometer. Cells should fit in the pre-defined gates. 16) During the compound incubation time, check also that cells are responding to the anti-CD3 activation as expected. Set a timer at 8 sec. Add 6 μl of anti-CD3 dilution (0.2 μg/ml final) and mix gently. Add 1 μl of GAM dilution (0.75 μg/ml final) and mix gently. Incubate the samples in water bath at 37° C. while starting timer. After 8 seconds of incubation, acquire data at medium speed for 200 seconds. A clear increase of fluorescence should appear after 1 minute. 17) Make sure that the cells rest and equilibrate at room temperature 15 minutes before FACS data acquisition 18) Data acquisition: Samples to be compared should be measured consecutively. 19) For a better reproducibility, make sure that data for the loaded cells are acquired within 2 hours. […]

ZAP-70 = target: T1, ZAP-70 (Homo sapiens, UniProt P43403); assay: ZAP-70 kinobeads assay; type: binding; conditions: cell lysate, dot blot detection
T1 construct: endogenous in cells; host or cells: cell lysate
T1 sequence (P43403 1-619): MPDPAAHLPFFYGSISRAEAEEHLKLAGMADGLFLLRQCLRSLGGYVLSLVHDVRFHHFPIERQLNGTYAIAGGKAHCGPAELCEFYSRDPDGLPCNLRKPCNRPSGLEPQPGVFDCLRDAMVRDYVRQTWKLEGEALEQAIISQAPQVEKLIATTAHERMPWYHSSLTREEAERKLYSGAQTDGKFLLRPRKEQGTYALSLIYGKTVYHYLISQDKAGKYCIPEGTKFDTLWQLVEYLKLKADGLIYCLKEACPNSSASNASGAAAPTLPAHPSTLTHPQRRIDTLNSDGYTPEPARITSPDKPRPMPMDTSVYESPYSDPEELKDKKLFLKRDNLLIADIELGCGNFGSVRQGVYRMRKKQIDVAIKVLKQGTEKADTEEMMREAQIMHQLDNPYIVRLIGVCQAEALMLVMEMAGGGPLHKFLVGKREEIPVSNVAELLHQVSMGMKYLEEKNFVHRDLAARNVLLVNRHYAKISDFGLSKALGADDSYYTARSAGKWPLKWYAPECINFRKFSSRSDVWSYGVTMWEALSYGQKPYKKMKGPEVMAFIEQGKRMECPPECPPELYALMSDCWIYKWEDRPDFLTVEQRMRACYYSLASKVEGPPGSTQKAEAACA
Method: The compounds of the present invention as described in the previous examples can be tested in the ZAP-70 kinobeads assay as described (EP-A 1862802 and WO-A 2007/137867). Briefly, test compounds (at various concentrations) and the affinity matrix with the immobilized aminopyrido-pyrimidine ligand 24 are added to cell lysate aliquots and allowed to bind to the proteins in the lysate sample. After the incubation time the beads with captured proteins are separated from the lysate. Bound proteins are then eluted and the presence ZAP-70 is detected and quantified using a specific antibody in a dot blot procedure and the Odyssey infrared detection system.

SMILES | IC50 (Jurkat cells) | IC50 (ZAP-70)
COc1cc(Nc2ncc(F)c(Nc3cccc(NS(N)(=O)=O)c3)n2)cc(OC)c1OC [Example 1, N-(3-(5-fluoro-2-(3,4,5-trimethoxyphenylamino)pyrimidin-4-ylamino)phenyl)sulfamide] | < 1000 nM | < 50000 nM
COCCNS(=O)(=O)Nc1ccccc1Nc1nc(Nc2cc(OC)c(OC)c(OC)c2)ncc1F [Example 15, N-(2-(5-fluoro-2-(3,4,5-trimethoxyphenylamino)pyrimidin-4-ylamino)phenyl)-N′-(2-methoxyethyl)sulfamide] | < 1000 nM | < 50000 nM
COc1ccc(NS(N)(=O)=O)c(Nc2nc(Nc3cc(OC)c(OC)c(OC)c3)ncc2F)c1 [Example 36, N-(2-(5-fluoro-2-(3,4,5-trimethoxyphenylamino)pyrimidin-4-ylamino)-4-methoxyphenyl)sulfamide] | < 1000 nM | < 50000 nM
CN(C)c1ccc(Nc2ncc(F)c(Nc3ccccc3NS(N)(=O)=O)n2)cc1 [Example 29, N-(2-(5-fluoro-2-(4-(dimethylamino)phenylamino)pyrimidin-4-ylamino)phenyl)sulfamide] |  | < 1000 nM
COc1ccc(Nc2ncc(F)c(Nc3ccccc3NS(N)(=O)=O)n2)cc1 [Example 28, N-(2-(5-fluoro-2-(4-methoxyphenylamino)pyrimidin-4-ylamino)phenyl)sulfamide] | < 1000 nM | < 50000 nM
COc1cc(Nc2ncc(F)c(Nc3cccc(NS(=O)(=O)N(C)C)c3)n2)cc(OC)c1OC [Example 2, N-(3-(5-fluoro-2-(3,4,5-trimethoxyphenylamino)pyrimidin-4-ylamino)phenyl)-N′,N′-dimethylsulfamide] |  | < 50000 nM
COc1cc(Nc2ncc(F)c(Nc3ccccc3NS(=O)(=O)NC(C)C)n2)cc(OC)c1OC [Example 13, N-(2-(5-fluoro-2-(3,4,5-trimethoxyphenylamino)pyrimidin-4-ylamino)phenyl)-N′-isopropylsulfamide] |  | < 50000 nM
CN(C)c1ccc(Nc2ncc(Br)c(Nc3ccccc3NS(N)(=O)=O)n2)cc1 [Example 25] | < 100 nM | < 1000 nM
CCNS(=O)(=O)Nc1cccc(Nc2nc(Nc3cc(OC)c(OC)c(OC)c3)ncc2F)c1 [Example 7, N-(3-(5-fluoro-2-(3,4,5-trimethoxyphenylamino)pyrimidin-4-ylamino)phenyl)-N′-ethylsulfamide] | < 1000 nM | < 50000 nM
COc1cc(Nc2ncc(F)c(Nc3cccc(NS(=O)(=O)NC(C)C)c3)n2)cc(OC)c1OC [Example 6, N-(3-(5-fluoro-2-(3,4,5-trimethoxyphenylamino)pyrimidin-4-ylamino)phenyl)-N′-isopropylsulfamide] |  | < 50000 nM
COc1cc(Nc2ncc(F)c(Nc3ccc(N4CCOCC4)cc3NS(N)(=O)=O)n2)cc(OC)c1OC [Example 35, N-(2-(5-Fluoro-2-(3,4,5-trimethoxyphenylamino)pyrimidin-4-ylamino)-5-morpholinophenyl)sulfamide] | < 1000 nM | < 1000 nM
CCOc1cccc(Nc2nc(Nc3cc(OC)c(OC)c(OC)c3)ncc2F)c1NS(N)(=O)=O [Example 33, N-(2-ethoxy-6-(5-fluoro-2-(3,4,5-trimethoxyphenylamino)pyrimidin-4-ylamino)phenyl)sulfamide] | < 1000 nM | < 100 nM
COc1cc(Nc2ncc(F)c(Nc3cccc(NS(=O)(=O)NCC4CC4)c3)n2)cc(OC)c1OC [Example 3, N-(3-(5-fluoro-2-(3,4,5-trimethoxyphenylamino)pyrimidin-4-ylamino)phenyl)-N′-cyclopropylmethylsulfamide] |  | < 50000 nM
COc1cc(Nc2ncc(F)c(Nc3ccccc3NS(=O)(=O)NCc3ccccc3)n2)cc(OC)c1OC [Example 14, N-(2-(5-fluoro-2-(3,4,5-trimethoxyphenylamino)pyrimidin-4-ylamino)phenyl)-N′-benzylsulfamide] |  | < 50000 nM
COc1cc(Nc2ncc(F)c(Nc3ccccc3NS(=O)(=O)N(C)C)n2)cc(OC)c1OC [Example 11, N-(2-(5-fluoro-2-(3,4,5-trimethoxyphenylamino)pyrimidin-4-ylamino)phenyl)-N′,N′-dimethylsulfamide] | < 1000 nM | < 1000 nM
COc1cc(Nc2ncc(C)c(Nc3ccccc3NS(N)(=O)=O)n2)cc(OC)c1OC [Example 24, N-(2-(5-methyl-2-(3,4,5-trimethoxyphenylamino)pyrimidin-4-ylamino)phenyl)sulfamide] | < 100 nM | < 1000 nM
NS(=O)(=O)Nc1ccccc1Nc1nc(Nc2ccc3[nH]nnc3c2)ncc1Br [Example 27, N-(2-(2 (1H-benzo[d][1,2,3]triazol-5-ylamino)-5-bromopyrimidin-4-ylamino)phenyl)sulfamide] | < 1000 nM | < 1000 nM
COc1cc(Nc2ncc(F)c(Nc3ccccc3NS(=O)(=O)NCC3CC3)n2)cc(OC)c1OC [Example 12, N-(2-(5-fluoro-2-(3,4,5-trimethoxyphenylamino)pyrimidin-4-ylamino)phenyl)-N′-cyclopropylmethylsulfamide] | < 1000 nM | < 50000 nM
COc1cc(Nc2ncc(F)c(Nc3cccc(C)c3NS(N)(=O)=O)n2)cc(OC)c1OC [Example 30, N-(2-(5-fluoro-2-(3,4,5-trimethoxyphenylamino)pyrimidin-4-ylamino)-6-methylphenyl)sulfamide] | < 100 nM | < 100 nM
COc1cc(Nc2ncc(F)c(Nc3ccc(NS(=O)(=O)N(C)C)cc3)n2)cc(OC)c1OC [Example 16, N-(4-(5-fluoro-2-(3,4,5-trimethoxyphenylamino)pyrimidin-4-ylamino)phenyl)N′,N′-dimethylsulfamide] | < 1000 nM | 
CNS(=O)(=O)Nc1cccc(Nc2nc(Nc3cc(OC)c(OC)c(OC)c3)ncc2F)c1 [Example 9, N-(3-(5-fluoro-2-(3,4,5-trimethoxyphenylamino)pyrimidin-4-ylamino)phenyl)-N′-methylsulfamide] |  | < 50000 nM
COCCNS(=O)(=O)Nc1cccc(Nc2nc(Nc3cc(OC)c(OC)c(OC)c3)ncc2F)c1 [Example 8, N-(3-(5-fluoro-2-(3,4,5-trimethoxyphenylamino)pyrimidin-4-ylamino)phenyl)-N′-(2-methoxyethyl)sulfamide] |  | < 50000 nM
